The text below walks through data of patent publication US5618665A, “Enzymatic fluorometric assay for adenylate cyclase” (Regents of the University of Minnesota, priority 1994, dated 1997).

Data set [1] relates to adenylate cyclase. Put plainly: Effect of theophylline on basal and isoproterenol-stimulated adenylate cyclase activity. Particulars: for Isoproterenol Stimulated adenylate cyclase activity / Fold Increase, isoproterenol stimulated: isoproterenol 10^-6 M; for Isoproterenol Stimulated adenylate cyclase activity / Basal (no isoproterenol) adenylate cyclase activity: n = 5; for Fold Increase, isoproterenol stimulated / Fold Increase, basal (no isoproterenol): vs control. The format is biochemical. The text has this:
To investigate the effects of theophylline on basal adenylate cyclase activity, increasing concentrations of theophylline were studied (Table 2).

The test system of data set [2] is adenylate cyclase. As to the kind of experiment: Adenylate cyclase activity of rabbit cardiac membranes by enzymatic fluorometric assay (ATP-ADP cycling), radioimmunoassay and Salomon's method. The format is biochemical. The note with it: isoproterenol 10^-7 and 10^-6 M; NaF 10^-2 M; GppNHp 10^-4 M; carbachol 10^-6 M; adenosine 10^-3 M; three methods. The procedure: Adenylate cyclase activities of six different rabbit cardiac membranes under basal and drug treated conditions were assessed using the fluorometric method of the present invention, radioimmunoassay and original [alpha-^32 P] ATP method developed by Salomon. The first part of the non-radioactive fluorescent technique for measuring adenylate cyclase activity is similar to the method described in Example 2 except that 3-isobutyl-1-methylxanthine (IBMX), rather than theophylline, was used to inhibit phosphodiesterase activity. Furthermore, a series of ATP-ADP enzyme-cycling reactions was used to amplify the cAMP signal, rather then the AMP stimulation of glycogen phosphorylase a utilized in previous examples. Use of the ATP-ADP enzymatic cycling amplification step can lengthen the assay duration, depending upon the desired assay sensitivity.
A volume of 1.0 μl of either H2 O, isoproterenol, NaF, guanylyl-5'-imidodiphosphate (GppNHp), carbachol, and adenosine was added to each of six reaction tubes on ice. Next, 25 μl of cyclase mix (100 mM Tris-acetate, pH 7.4; 4.2 mM KCl; 10 mM MgCl2; 20 mM phosphoenolpyruvate; 2 mM ATP; 20 μM GTP; 2 mM dithiothreitol; 0.04% bovine serum albumin; 0.2 mM 3-isobutyl-1-methylxanthine (IBMX); 100 μg/ml pyruvate kinase) was added to each reaction tube. The stored membrane was diluted with SET buffer in a concentration of 1.5 mg of protein/ml. Finally, 25 μl of membrane suspension, which contained 37.5 μg of protein, was added to each tube, and the reaction was initiated by placing the tubes in a water bath maintained at 37° C. After 30 minutes, the reaction was terminated by heating at 90° C. for 5 minutes. […] Then, 25 μl of cyclase mix and 25 μl of boiled membrane preparation were added to each tube. After 30 minutes, the reaction was terminated by heating at 90° C. for 5 minutes.
A volume of 5 μl of reaction of product from Part A was transferred to Pyrex® tubes. For external cAMP standard, a same volume of known amount of cAMP was also added to assay tubes. Newly synthesized cAMP was measured using the following enzymatic fluorometric assay.
1. A volume of 25 μl of "cleaning" reaction mix (100 mM Tris HCl, pH 8.0; 2 mM MgCl2; 2 units/ml apyrase; 2.5 units/ml 5'-nucleotidase; 50 μg/ml adenosine deaminase; 20 units/ml alkaline phosphatase) was added to each assay tube. The mixture was incubated at 37° C. for 30 minutes. Enzymes were then destroyed by heating for 10 minutes at 90° C.
2. A volume of 25 μl of a phosphodiesterase-containing reaction mix (100 mM Tris-HCl pH 8.0; 2 mM MgCl2; 0.01% bovine serum albumin; 60 μg/m; phosphodiesterase) was added to each assay tube from Step 1. After 60 minutes at 37° C., the assay tubes were heated at 90° C. for 5 minutes.
3. A volume of 25 μl of myokinase reaction mix (100 mM Tris-HCl, pH 8.0; 2 mM MgCl2; 225 mM KCl; 200 nM ATP; 8 mM phosphoenolpyruvate; 2 mM dithiothreitol; 0.01% bovine serum albumin; 24 μg/ml myokinase; 50 μg/ml pyruvate kinase) was added to the assay tubes from Step 2. The reactions were incubated at 37° C. for 2 hours.
4. […]
5. […] After 15 minutes at room temperature, the final concentration of NADPH was measured using a fluorometer (Optical Technology Devices, Inc., New York). The fluorometer was set such that a reading of 1 fluorometric unit was equivalent to 100 pmol of NADPH in 900 μl of buffer (50 mM Tris-HCl, pH 8.0). […]

Another data set concerns glycogen phosphorylase a. As to the kind of experiment: Removal of AMP by the cleaning reactions (glycogen phosphorylase a activity, NADPH fluorescence). The class given is biochemical. The note with it: 25° C. The method, then:
AMP was incubated for 60 min at 37° C. with 50 μl of either buffer (100 mM Tris-HCl, pH 8.0) or a cleaning reaction mixture containing 100 mM Tris-HCl, pH 8.0; 5 mM MgCl2. 2 mM CaCl2, 0.02 units/ml apyrase; 0.025 units/ml 5'-nucleotidase and 0.1 mg/ml adenosine deaminase.

For data set [3], the system named is adenylate cyclase. Put plainly: Fluorometric (non-radioactive) adenylate cyclase assay, rabbit ventricular membranes. The class given is biochemical, rabbit (New Zealand white). Particulars: Iso 10^-6 M; GppNHp 10^-4 M; NaF 10^-2 M; n = 5. The procedure: (§1) Ventricular membrane preparations were prepared from five male New Zealand white rabbits (weight 2.4 kg; W.O.R.K., Philomith, Oreg.) sacrificed by cervical concussion and immediate incision of the heart as previously described. Briefly, hearts were placed in ice-cold SET buffer (0.25M sucrose, 0.1 mM EDTA, 5.0 mM Tris HCl, pH 7.4). Portions (1-2 g) from the ventricular apex were minced and then homogenized in ice-cold SET buffer (1/10, w/v). The homogenate was filtered through a Nitex filter (three layers) (Tetko, Los Angeles, Calif.) and then centrifuged for 20 min. at 1000×g. The pellet was resuspended and centrifuged three more times. The final pellet was resuspended in SET buffer (1.5 mg protein/ml) and stored at -70° C. until enzyme activity was measured.
A volume of 1.0 μl of either H2 O, NaF, guanylyl -5'-imidodiphosphate (GppNHp), isoproterenol, or isoproterenol+GppNHp was added to each of five reaction tubes and maintained at 0° C. Next, 25 μl of reaction mixture B (tris Acetate 100 mM, pH 7.4; KCl 20 mM; MgCl2 10.0 mM; phosphoenolpyruvate 20 mM; ATP 2.0 mM; GTP 0.02 mM; dithiothreitol 2.0 mM; bovine serum albumin 0.04%; theophylline 0.2 mM; pyruvate kinase 1.0 mg/ml) were added to each reaction tube. Finally, 25 μl of membrane suspension (40 to 45 μg protein) were added to each tube and the reaction was initiated by placing the tubes in a water bath at 37° C. After 30 minutes at 37° C., the reaction was stopped by the addition of 50 μl of 50 mM NaOH. The reaction mixture was heated for 5 minutes at 95° C.
1. A volume of 20-40 μl of reaction product from Part A was added to 100 μl of cleaning reaction mix (Tris-HCl 50 mM, pH 8.0; MgCl2 5 mM; CaCl2, 2 mM; 5'-nucleotidase 0.025 units/ml; apyrase 0.02 units/ml; adenosine deaminase 0.1 mg/ml). After 30 minutes at 37° C., the reaction was terminated by heating it at 95° C. for 5 minutes.
2. […] After 60 minutes at 37° C., 600 μl of 2-amino-2-methyl-1-propanol (AMP2) 50 mM, pH 9.9 was added to the reaction mix and the final concentration of NADPH was measured fluorometrically.
Although the basal activity is nearly 3 times higher in the nonradioactive method, the "fold" stimulation is similar for both receptor-mediated agonists (isoproterenol±GppNHp) as well by NaF, which directly stimulates adenylate cyclase.
The non-radioactive assay of Example 2 is at least 5 times more sensitive than the modified Salomon radioactive assay of Example 1. In Table 3, 5 μl of membrane preparation were used to measure adenylate cyclase activity in the non-radioactivity assay compared to 25 μl with the radioactive preparations. In a separate experiment, the volume of membrane suspension was reduced from 25 μl to 5 μl. By proportionally reducing the assay volume size, no difference in basal (58.4±3.9), isoproterenol (10^-6 M) (128±7.6) or NaF (10^-2 M) (331.9±42.8) stimulated activity was observed when results were compared to larger assay volumes present. EXAMPLE 5.

The test system of data set [4] is adenylate cyclase. Put plainly: Radioactive adenylate cyclase assay (modified Salomon, alpha-32P-ATP), rabbit ventricular membranes. The format is biochemical, rabbit (New Zealand white). The note with it: Iso 10^-6 M; GppNHp 10^-4 M; NaF 10^-2 M; n = 5. The procedure: as §1
A volume of 1.0 μl of either H2 O, NaF, guanylyl-5'-imidodiphosphate (GppNHp), isoproterenol, or isoproterenol+GppNHp were added to each of five reaction tubes and maintained at 0° C. […] Finally 25 μl of membrane suspension ([…]) were added to each tube and the reaction was initiated by placing the tubes in a water bath at 37° C. After 30 minutes, the reaction was terminated by the addition of 300 μl of a stopping solution which contained 0.34 HCl and ^3 H-cAMP, 10,000-20,000 cpm.
To generate the graph depicted in FIG. 2, 250 μl portions of reaction mixture A and membrane were used and 50 μl samples were removed from the 37° C. bath every 10 minutes, and stopped with 300 μl stopping solution. The assay tubes were heated at 95° C. for 5 minutes. ^32 P-cAMP was isolated using Dowex-alumina chromatography. Recovery, as assessed by ^3 H-cAMP, was 80-95%. All assays were conducted in triplicate. The time course of adenylate cyclase activity (n=5 different rabbit ventricular membrane preparations) is depicted in FIG. 1. Basal AC and agonist stimulated (0.1 mM GppNHp, 0.1 mM) AC are compared. The activity shown is (isoproterenol+GppNHp-stimulated AC activity) minus (GppNHp-stimulated activity). […]

For `Cn1c(=O)c2[nH]cnc2n(C)c1=O` [theophylline], in the data set on adenylate cyclase [1] (theophylline 10 μM), the “Isoproterenol Stimulated adenylate cyclase activity” value is 85.58 ± 5.56 pmol/mg/min; the “Fold Increase, isoproterenol stimulated” value is 1.65 fold; the “Basal (no isoproterenol) adenylate cyclase activity” value is 44.72 ± 4.61 pmol/mg/min; the “Fold Increase, basal (no isoproterenol)” value worked out at 1.46 fold. Moreover, in the data set on adenylate cyclase [1] (theophylline 50 μM), the “Isoproterenol Stimulated adenylate cyclase activity” value came out at 93.02 ± 3.55 pmol/mg/min; the “Fold Increase, isoproterenol stimulated” value is on record as 1.80 fold; the “Basal (no isoproterenol) adenylate cyclase activity” value worked out at 44.63 ± 5.93 pmol/mg/min; the “Fold Increase, basal (no isoproterenol)” value is recorded as 1.46 fold. Besides, in the data set with adenylate cyclase [1] (theophylline 100 μM), the “Isoproterenol Stimulated adenylate cyclase activity” value was found to be 104.21 ± 3.50 pmol/mg/min; the “Fold Increase, isoproterenol stimulated” value was found to be 2.01 fold; the “Basal (no isoproterenol) adenylate cyclase activity” value turned out to be 59.94 ± 3.63 pmol/mg/min; the “Fold Increase, basal (no isoproterenol)” value was 1.91 fold. In the data set on adenylate cyclase [1] (theophylline 500 μM), the “Isoproterenol Stimulated adenylate cyclase activity” value was 102.67 ± 2.86 pmol/mg/min; the “Fold Increase, isoproterenol stimulated” value is listed as 1.98 fold; the “Basal (no isoproterenol) adenylate cyclase activity” value amounted to 53.82 ± 4.37 pmol/mg/min; the “Fold Increase, basal (no isoproterenol)” value turned out to be 1.75 fold. Also, the “basal activity is increased” value in the data set with adenylate cyclase [1] (theophylline 100-500 μM) was “approximately 100%”. The “increase in basal activity” value with adenylate cyclase [1] (theophylline > 100 μM) is reported as “no significant increase in basal activity was observed”.

`C[N+](C)(C)CCOC(N)=O` [carbachol]: the “effect on cAMP production” value in the data set with adenylate cyclase [2] is reported as “inhibited”.

In the case of `Nc1ncnc2c1ncn2[C@@H]1O[C@H](CO)[C@@H](O)[C@H]1O` [adenosine], the “effect on cAMP production” value in the data set with adenylate cyclase [2] is “inhibited”.

Regarding “adenosine 2'- and 3'-monophosphate [AMP]”, the “glycogen phosphorylase a activity” value is given as “remains similar to the control buffer values” with glycogen phosphorylase a (in the presence of the cleaning reaction mixture) and “markedly stimulated” with glycogen phosphorylase a (without the cleaning step).

For `Nc1nc2c(ncn2[C@@H]2O[C@H](COP(=O)(O)OP(=O)(O)NP(=O)(O)O)[C@@H](O)[C@H]2O)c(=O)[nH]1` [GppNHp, guanylyl-5'-imidodiphosphate], the “Agonist-stimulated adenylate cyclase activity, fluorescent assay” value in the data set with adenylate cyclase [3] is reported as 185.3 ± 13.7 pmoles of cAMP/mg/min. In the data set on adenylate cyclase [4], the “Agonist-stimulated adenylate cyclase activity, radioactive assay” value is on record as 64.9 ± 3.3 pmoles of cAMP/mg/min. Moreover, in the data set on adenylate cyclase [2], the “effect on cAMP production” value was “increased production”.
